Assay results published in paper PMC7340670, “Phase I study of TAS-115, a novel oral multi-kinase inhibitor, in patients with advanced solid tumors” (Investigational New Drugs, 2019).
“Also recorded” adds a separate entry of the source.

Columns and labels:
[1] = test system: patients with advanced solid tumors; assay: Phase I study (JapicCTI-132333): safety, tolerability, DLT, MTD, RP2D; assay type: in vivo
Method: This is an open-label, nonrandomized, dose-escalation study conducted at five sites in Japan. The study has three parts: a dose-escalation cohort using a traditional 3 + 3 design (part 1), a dosing schedule investigation cohort (part 2), and an expansion cohort to assess the safety at the MTD or lower doses among more patients (expansion part).
For each dose level in part 1, three to six patients were enrolled. DLTs were evaluated during the first cycle. […] The study drug was orally administered under empty stomach conditions (1 h before or 2 h after a meal) with a cup of water. […] In the expansion part, ≤MTD was investigated for exposure and safety.
All patients in parts 1 and 2 were required to be hospitalized for cycle 1 in order to observe AE. Patients continued to receive the study drug until disease progression or intolerable toxicity. […] The number of dose reductions was up to 2, and the minimum dose was 100 mg/day. […]

[2] = test system: recombinant MET; set-up: method as in PMID 24140932; conditions: read-out: IC50 against recombinant MET; cited from earlier work
[3] = test system: AKT and ERK1/2 phosphorylation; set-up: method as in PMID 27539855, PMID 27736957; conditions: mouse osteoclasts in vitro; cited from earlier work
[4] = Part 2 + Expansion part, 450 or 650 mg/day, 5-on/2-off (N = 61), patients (%)
[5] = part 2 and expansion part (N = 61)

CNC(=O)c1cc2c(Oc3ccc(NC(=S)NC(=O)Cc4ccccc4)cc3F)ccnc2cc1OC [TAS-115]
Treatment-related adverse events: Neutropenia, ≥ Grade 3 [1, 4]: 15 (24.6)
Treatment-related adverse events: Rash, Any Grade [1, 4]: 15 (24.6)
Treatment-related adverse events: Rash, ≥ Grade 3 [1, 4]: 1 (1.6)
Treatment-related adverse events: Thrombocytopenia, Any Grade [1, 4]: 19 (31.1)
Treatment-related adverse events: Thrombocytopenia, ≥ Grade 3 [1, 4]: 9 (14.8)
Treatment-related adverse events: Vomiting, Any Grade [1, 4]: 19 (31.1)
Treatment-related adverse events: Vomiting, ≥ Grade 3 [1, 4]: 1 (1.6)
recommended phase II dose (RP2D) ([1]; SID, 5-on/2-off for 21 days per cycle, estimated): 650 mg
treatment-related death ([1]; any study part, during treatment or within 28 days of the last dose): No treatment-related death was observed
patients with TRAEs leading to dose interruption ([1]; cohorts 650 mg and 800 mg in part 1): All the patients
Serious AEs ([1]; expansion part): thirty one patients
Serious TRAEs ([1]; expansion part): decreased appetite (three patients), nausea (two patients), interstitial lung disease, rash, enterocolitis, fatigue, thrombocytopenia, and pyrexia (one patient each)
AEs resulted in death ([1]; expansion part (650 mg), not considered related to TAS-115): hepatic failure, disease progression and respiratory failure occurred in one patient each
Serious AEs ([1]; part 1): seven patients
Serious TRAEs ([1]; part 1): tumor hemorrhage and decreased appetite (one patient, 650 mg each), thrombocytopenia (one patient, 800 mg)
TRAEs that led to treatment discontinuation ([1]; part 1): rash (one patient, 800 mg)
Grade ≥3 TRAEs ([1]; part 1 (N = 21)): 13 patients
Treatment-related adverse events: Any Events, Total ([1]; part 1, 200 mg SID (N=3)): 3 (100.0) N (%)
Treatment-related adverse events: Any Events, ≥ Grade 3 ([1]; part 1, 200 mg SID (N=3)): 1 (33.3) N (%)
Treatment-related adverse events: Investigations, Total ([1]; part 1, 200 mg SID (N=3)): 2 (66.7) N (%)
Treatment-related adverse events: Investigations, ≥ Grade 3 ([1]; part 1, 200 mg SID (N=3)): 1 (33.3) N (%)
Treatment-related adverse events: Any Events, Total ([1]; part 1, 300 mg SID (N=3)): 3 (100.0) N (%)
Treatment-related adverse events: Any Events, ≥ Grade 3 ([1]; part 1, 300 mg SID (N=3)): 2 (66.7) N (%)
Treatment-related adverse events: Investigations, Total ([1]; part 1, 300 mg SID (N=3)): 2 (66.7) N (%)
Treatment-related adverse events: Investigations, ≥ Grade 3 ([1]; part 1, 300 mg SID (N=3)): 2 (66.7) N (%)
Treatment-related adverse events: Any Events, Total ([1]; part 1, 450 mg SID (N=3)): 3 (100.0) N (%)
Treatment-related adverse events: Any Events, ≥ Grade 3 ([1]; part 1, 450 mg SID (N=3)): 2 (66.7) N (%)
Treatment-related adverse events: Investigations, Total ([1]; part 1, 450 mg SID (N=3)): 3 (100.0) N (%)
Treatment-related adverse events: Investigations, ≥ Grade 3 ([1]; part 1, 450 mg SID (N=3)): 2 (66.7) N (%)
treatment interruption during cycle 1 ([1]; part 1, 650 mg SID): all patients who received 650 mg SID required treatment interruption; also recorded: all patients who received 650 mg SID had treatment interruption
Treatment-related adverse events: Any Events, Total ([1]; part 1, 650 mg SID (N=6)): 6 (100.0) N (%)
Treatment-related adverse events: Any Events, ≥ Grade 3 ([1]; part 1, 650 mg SID (N=6)): 5 (83.3) N (%)
Treatment-related adverse events: Investigations, Total ([1]; part 1, 650 mg SID (N=6)): 6 (100.0) N (%)
Treatment-related adverse events: Investigations, ≥ Grade 3 ([1]; part 1, 650 mg SID (N=6)): 3 (50.0) N (%)
Treatment-related adverse events: Any Events, Total ([1]; part 1, 800 mg SID (N=6)): 6 (100.0) N (%)
Treatment-related adverse events: Any Events, ≥ Grade 3 ([1]; part 1, 800 mg SID (N=6)): 3 (50.0) N (%)
Treatment-related adverse events: Investigations, Total ([1]; part 1, 800 mg SID (N=6)): 4 (66.7) N (%)
Treatment-related adverse events: Investigations, ≥ Grade 3 ([1]; part 1, 800 mg SID (N=6)): 1 (16.7) N (%)
dose dependence of TRAEs ([1]; part 1, 200–800 mg SID): no dose-dependent increase in the incidence and grade of TRAEs was observed
DLTs overall ([1]; part 1, 200–800 mg SID, 21 patients): Three dose-limiting toxicities; also recorded: three DLTs
maximum tolerated dose (MTD) ([1]; part 1, SID, 21 days per cycle, granule formulation): 650 mg
DLTs at 650 mg SID ([1]; part 1, cycle 1, N = 6): grade 3 rash in one patient
DLTs at 800 mg SID ([1]; part 1, cycle 1, N = 6): grade 3 thrombocytopenia with bleeding and grade 3 rash each in one patient
Serious AEs ([1]; part 2): two patients
Serious TRAEs ([1]; part 2): peritonitis (one patient)
treatment interruption in cycle 1 ([1]; part 2, 650 mg SID 5-on/2-off): no patients required treatment interruption
DLTs at 650 mg SID 5-on/2-off ([1]; part 2, cycle 1, six patients): No DLTs were observed; also recorded: no DLTs were reported
TRAEs that led to treatment discontinuation ([1]; part 2 and expansion part): rash (two patients, 650 mg), pyrexia, peritonitis and neutropenia (one patient each, 650 mg)
TRAE anemia, any grade [1, 5]: 34.4%
TRAE decreased appetite, any grade [1, 5]: 42.6%
TRAE fatigue, any grade [1, 5]: 44.3%
TRAE hypophosphatemia, any grade [1, 5]: 32.8%
TRAE increased ALT, any grade [1, 5]: 37.7%
TRAE increased AST, any grade [1, 5]: 50.8%
TRAE nausea, any grade [1, 5]: 42.6%
TRAE neutropenia, any grade [1, 5]: 34.4%
TRAE thrombocytopenia, any grade [1, 5]: 31.1%
TRAE vomiting, any grade [1, 5]: 31.1%
grade ≥3 TRAE anemia [1, 5]: 14.8%
grade ≥3 TRAE hypophosphatemia [1, 5]: 21.3%
grade ≥3 TRAE leukocytopenia [1, 5]: 11.5%
grade ≥3 TRAE neutropenia [1, 5]: 24.6%
grade ≥3 TRAE thrombocytopenia [1, 5]: 14.8%
frequency of TRAEs leading to dose interruption ([1]; part 2 and the expansion part): approximately 77%
tolerability ([1]; patients with advanced solid tumors, up to 650 mg 5-on/2-off): generally well tolerated
IC50 [2]: 32 nM
HGF, and VEGF-induced phosphorylation of signaling factors (AKT and ERK1/2) [3]: suppressed
